According to paper PMC9641054, “Antimicrobial activity of cationic antimicrobial peptides against stationary phase bacteria” (Frontiers in Microbiology, 2022):
≈ marks a conversion by molar mass, not a printed value. No end group written: not given here.

Columns and labels:
Format in all cases: cell-based
[1] = test system: Escherichia coli K12; experiment: microbe, parasite or virus in culture; conditions: for MIC: Escherichia coli, K12, read-out: MIC E. coli K12
Description: (§1) The Escherichia coli K12 from Yale University Microbial Stock Center and Staphylococcus aureus SH1000 ([Horsburgh et al., 2002]) were used for all experiments. All cultures related to antimicrobial tests and experiments were carried out in Mueller-Hinton I broth (Sigma) devoid of cations. Both strains were routinely cultured in Lysogeny Broth (LB medium).
(§2) The minimal inhibitory concentration for each antimicrobial were determined according to CLSI recommendations by the microdilution method ([CLSI, 2018]) with minor modifications for antimicrobial peptides ([Giacometti et al., 2000]). For comparison, we kept these modifications also for antibiotics. Inoculum size that was adjusted to approximately 1 × 10^6 CFU/ml from a 2-h mid-exponential phase obtained by diluting 100 μl of overnight cultures in 10 ml of fresh medium in 50 ml Falcon tubes. The MIC was defined as the minimal antimicrobial concentration that inhibited growth, after 24 h of incubation in liquid MHB medium at 37°C. Polypropylene non-binding plates (96 wells, Th. Geyer, Germany) were used for all experiments.

[2] = test system: Staphylococcus aureus SH1000; experiment: microbe, parasite or virus in culture; conditions: for MIC: Staphylococcus aureus, SH1000, read-out: MIC S. aureus SH1000
Description: as §1, §2

[3] = test system: Escherichia coli K12; experiment: Killing experiment at 10x MIC, fast-growing (exponential) versus stationary phase bacteria in spent medium; conditions: for Killing fold-change 4 h (median) / Killing fold-change 24 h: E. coli K12, exponentially growing versus stationary phase cultures, 10x MIC, ~2 × 10^6 CFU/ml, 37°C, five independent cultures; for Killing of stationary phase bacteria at 4 h (in words) / Killing of stationary phase bacteria at 24 h (in words): stationary phase in spent medium
Description: (§3) For exponentially growing bacteria, five independent cultures per treatment were diluted 1:100 from a 16-h overnight culture (by adding 100 μl to 10 ml of MHB medium in 50 ml Falcon tubes). Then, the bacteria were grown for 2 h for E. coli and 2.5 h for S. aureus, to reach approximately 2 × 10^8 CFU/ml. The cultures were then diluted 1/100 in fresh medium to reach approximately 2 × 10^6 CFU/ml. […] Volumes of 100 μl-sample were extracted at 4 and 24 h. The aliquots were diluted and plated to determine cell viability. Non-treated cells were used as a control. All incubations took place at 37°C with shaking.
(§4) In order to maintain bacteria in their non-dividing state, we generated a medium to carry out the killing assays. From the supernatant of 500 ml of 48-h culture from each bacterium, the cells were pelleted at 4000 ×g for 30 min. The pH of each culture was adjusted to match the original pH of 7.2. To remove additional cell debris, flagella rest and outer membrane vesicles that could potentially interfere with the activity of AMPs ([Manning and Kuehn, 2011]), the supernatants were ultracentrifuged at 100000 ×g during 16 h at + 4°C. Thereafter, 250 ml of the supernatant from each flask was carefully recovered, without perturbing the pellet, and aseptically filtrated using 0.22 μm syringe filters and 40 ml were transferred to sterile 50 ml-falcon tubes, that were stored at −20°C until use. We refer to this medium as spent medium.
(§5) For stationary phase bacteria, five independent cultures per treatment were used. Bacteria from 48-h cultures containing approximately 3 × 10^9 CFU/ml for E. coli and 2 × 10^9 CFU/ml for S. aureus were diluted in spent medium (see preparation above) to a final cell density of 2×10^6 CFU/ml. Then, the bacteria were treated identically to the fast-growing bacteria killing experiment described above.
(§6) Statistical testing and plots were done in R version 3.3.2 ([R Core Team, 2017]), using Rstudio version 1.0.143 ([R Development Core Team, 2015]). To compare killing rates between bacteria growing in exponential and stationary phase for each antimicrobial after 4 and 24 h of exposure, a Welch’s t-test was used. Values below the detection limit (zero colony counts) were imputed for statistical purposes assigning a value of 1.

[4] = test system: Staphylococcus aureus SH1000; experiment: as above; conditions: for Killing fold-change 4 h (median) / Killing fold-change 24 h: S. aureus SH1000, exponentially growing versus stationary phase cultures, 10x MIC, ~2 × 10^6 CFU/ml, 37°C, five independent cultures; for Killing of stationary phase bacteria at 4 h (in words) / Killing of stationary phase bacteria at 24 h (in words): stationary phase in spent medium
Description: as §3, §4, §5, §6

[5] = microdilution, inoculum ~1 × 10^6 CFU/ml mid-exponential phase, MHB devoid of cations, 24 h, 37°C, polypropylene non-binding plates

Compound | MIC [1, 5] | MIC [2, 5] | Killing fold-change 4 h (median) [3] | Killing fold-change 24 h [3] | Killing of stationary phase bacteria at 4 h (in words) ([3]; E. coli, 10 × MIC) | Killing of stationary phase bacteria at 24 h (in words) ([3]; E. coli, 10 × MIC) | Killing fold-change 4 h (median) [4] | Killing fold-change 24 h [4] | Killing of stationary phase bacteria at 4 h (in words) ([4]; S. aureus, 10 × MIC) | Killing of stationary phase bacteria at 24 h (in words) ([4]; S. aureus, 10 × MIC) | MIC E. coli K12 [1, 5] | MIC S. aureus SH1000 [2, 5] | Killing of bacterial cultures (in words) ([3]; E. coli, 10 × MIC, fast and slow-replicating bacteria, both time-points 4 and 24 h) | Killing of bacterial cultures (in words) ([4]; S. aureus, 10 × MIC, fast and slow-replicating bacteria, both time-points 4 and 24 h) | MIC E. coli K12 ([1]; K12, 24 h) | MIC S. aureus SH1000 ([2]; SH1000, 24 h)
CC1(C)S[C@@H]2[C@H](NC(=O)[C@H](N)c3ccccc3)C(=O)N2[C@H]1C(=O)O [Ampicillin] | 2 µg/mL (≈ 5.72 µM) | 4 µg/mL (≈ 11.4 µM) | 595.18 | 4,150,000 | did not kill | poor killing capacity | 13087.25 | 4,470,000 | did not kill | poor killing capacity |  |  |  |  |  | 
O=C(O)c1cn(C2CC2)c2cc(N3CCNCC3)c(F)cc2c1=O [Ciprofloxacin] |  |  |  |  |  | reduced microbial count for both models with a significantly lower efficacy than killing fast-replicating cultures |  |  |  | reduced microbial count for both models with a significantly lower efficacy than killing fast-replicating cultures |  |  |  |  |  | 
CNC(C)C1CCC(N)C(OC2C(N)CC(N)C(OC3OCC(C)(O)C(NC)C3O)C2O)O1 (centres unmarked) [Gentamicin] | 1 µg/mL (≈ 2.09 µM) | 4 µg/mL (≈ 8.38 µM) | 10380.62 | 317,000 |  | reduced microbial count for both models with a significantly lower efficacy than killing fast-replicating cultures | 8508.47 | 2,890,000 |  | reduced microbial count for both models with a significantly lower efficacy than killing fast-replicating cultures |  |  |  |  |  | 
CC[C@H](C)[C@H](N)C(=O)N[C@@H](CC(C)C)C(=O)N1CCC[C@H]1C(=O)N[C@@H](Cc1c[nH]c2ccccc12)C(=O)N[C@@H](CCCCN)C(=O)N[C@@H](Cc1c[nH]c2ccccc12)C(=O)N1CCC[C@H]1C(=O)N[C@@H](Cc1c[nH]c2ccccc12)C(=O)N[C@@H](Cc1c[nH]c2ccccc12)C(=O)N1CCC[C@H]1C(=O)N[C@@H](Cc1c[nH]c2ccccc12)C(=O)N[C@@H](CCCNC(=N)N)C(=O)N[C@@H](CCCNC(=N)N)C(N)=O [Indolicidin] |  |  |  | 1 |  |  |  | 1 |  |  | 16 µg/mL (≈ 8.39 µM) | 8 µg/mL (≈ 4.2 µM) | completely killing | completely killing |  | 
CC[C@H](C)[C@H](NC(=O)[C@H](CCCCN)NC(=O)[C@H](CCC(=O)O)NC(=O)[C@H](CCCCN)NC(=O)[C@H](CO)NC(=O)[C@H](CCCCN)NC(=O)[C@H](CCCNC(=N)N)NC(=O)[C@H](Cc1ccccc1)NC(=O)[C@H](Cc1ccccc1)NC(=O)[C@H](CC(=O)O)NC(=O)CNC(=O)[C@H](CC(C)C)NC(=O)[C@@H](N)CC(C)C)C(=O)NCC(=O)N[C@@H](CCCCN)C(=O)N[C@@H](CCC(=O)O)C(=O)N[C@@H](Cc1ccccc1)C(=O)N[C@@H](CCCCN)C(=O)N[C@@H](CCCNC(=N)N)C(=O)N[C@H](C(=O)N[C@H](C(=O)N[C@@H](CCC(N)=O)C(=O)N[C@@H](CCCNC(=N)N)C(=O)N[C@H](C(=O)N[C@@H](CCCCN)C(=O)N[C@@H](CC(=O)O)C(=O)N[C@@H](Cc1ccccc1)C(=O)N[C@@H](CC(C)C)C(=O)N[C@@H](CCCNC(=N)N)C(=O)N[C@@H](CC(N)=O)C(=O)N[C@@H](CC(C)C)C(=O)N[C@H](C(=O)N1CCC[C@H]1C(=O)N[C@@H](CCCNC(=N)N)C(=O)N[C@H](C(=O)N[C@@H](CCC(=O)O)C(=O)N[C@@H](CO)C(=O)O)[C@@H](C)O)C(C)C)[C@@H](C)CC)C(C)C)[C@@H](C)CC [LL-37] |  |  | 3.71 | 1 | some delay in killing |  | 0.66 | 1 | some delay in killing |  | 4 µg/mL (≈ 0.89 µM) | 8 µg/mL (≈ 1.78 µM) |  |  |  | 
CC[C@H](C)[C@H](NC(=O)CN)C(=O)NCC(=O)N[C@@H](C)C(=O)N[C@H](C(=O)N[C@@H](CC(C)C)C(=O)N[C@@H](CCCCN)C(=O)N[C@H](C(=O)N[C@@H](CC(C)C)C(=O)N[C@H](C(=O)N[C@H](C(=O)NCC(=O)N[C@@H](CC(C)C)C(=O)N1CCC[C@H]1C(=O)N[C@@H](C)C(=O)N[C@@H](CC(C)C)C(=O)N[C@H](C(=O)N[C@@H](CO)C(=O)N[C@@H](Cc1c[nH]c2ccccc12)C(=O)N[C@H](C(=O)N[C@@H](CCCCN)C(=O)N[C@@H](CCCNC(=N)N)C(=O)N[C@@H](CCCCN)C(=O)N[C@@H](CCCNC(=N)N)C(=O)N[C@@H](CCC(N)=O)C(=O)N[C@@H](CCC(N)=O)C(N)=O)[C@@H](C)CC)[C@@H](C)CC)[C@@H](C)O)[C@@H](C)O)C(C)C)C(C)C [Melittin] |  |  |  |  | some delay in killing |  |  | 17 | some delay in killing |  | 2 µg/mL (≈ 0.703 µM) | 2 µg/mL (≈ 0.703 µM) |  |  |  | 
GIGKFLKKAKKFGKAFVKILKK-NH2 (C-terminus assumed) [Pexiganan] |  |  | 2.53 | 1 | some delay in killing |  | 1.14 | 1 | some delay in killing |  |  |  |  |  | 4 µg/mL | 8 µg/mL
KWKLFKKIEKVGQNIRDGIIKAGPAVAVVGQATQIAK-NH2 (C-terminus assumed) [Cecropin A] |  |  | 1.21 | 27 | some delay in killing |  | 1.30 | 0.22 | some delay in killing |  |  |  |  |  |  | 
